In PubChem BioAssay AID276 (DTP/NCI, 2004):
“And” between values parts separate entries of the source, which are not always exact repeats. Equal entries are not always repeated. Inconclusive results and toxic doses are left out.

Tested on: B6C3F1 mice, Lewis lung carcinoma iv, survival T/C
Test: NCI In Vivo Anticancer Drug Screen. Data for tumor model Lewis Lung Carcinoma (intravenous) in B6C3F1 mice
Conditions: endpoint: median survival time, higher = longer survival
Method: The antitumor activity of compounds was measured in mice bearing transplantable tumors. Survival or tumor size were measured and the results are expressed as the measurement made in the treated group (T) divided by the measurement made in the vehicle treated control group (C). The tumor model used in this assay is Lewis Lung Carcinoma (intravenous) in B6C3F1 mice

[1] = dose: 1.56 mg/kg/injection, schedule: Q01DX009 (ip), vehicle: saline
[2] = dose: 6.25 mg/kg/injection, schedule: Q01DX009 (ip), vehicle: saline
[3] = dose: 12.5 mg/kg/injection, schedule: Q01DX009 (ip), vehicle: saline
[4] = dose: 12.5 mg/kg/injection, schedule: Q01DX009 (ip), vehicle: saline with Tween-80
[5] = dose: 25.0 mg/kg/injection, schedule: Q01DX009 (ip), vehicle: saline with Tween-80
[6] = dose: 50.0 mg/kg/injection, schedule: Q01DX009 (ip), vehicle: saline with Tween-80
[7] = dose: 12.5 mg/kg/injection, schedule: Q01DX009 (ip), vehicle: Klucel (hydroxypropylcellulose) (HPC)
[8] = dose: 25.0 mg/kg/injection, schedule: Q01DX009 (ip), vehicle: Klucel (hydroxypropylcellulose) (HPC)
[9] = dose: 50.0 mg/kg/injection, schedule: Q01DX009 (ip), vehicle: Klucel (hydroxypropylcellulose) (HPC)
[10] = dose: 100.0 mg/kg/injection, schedule: Q01DX009 (ip), vehicle: Klucel (hydroxypropylcellulose) (HPC)
[11] = dose: 200.0 mg/kg/injection, schedule: Q01DX009 (ip), vehicle: Klucel (hydroxypropylcellulose) (HPC)
[12] = dose: 25.0 mg/kg/injection, schedule: Q01DX009 (ip), vehicle: suspension in saline
[13] = dose: 50.0 mg/kg/injection, schedule: Q01DX009 (ip), vehicle: suspension in saline

With COC(=O)[C@@H]1c2cc3c(c(O)c2[C@@H](OC)C[C@@]1(C)O)C(=O)c1c(O)cc2c(c1C3=O)OC1O[C@@]2(C)[C@H](O)[C@@H](N(C)C)[C@@H]1O the T/C [1] was 99 % of control, the T/C (dose: 3.13 mg/kg/injection, schedule: Q01DX009 (ip), vehicle: saline) was 112 % of control and the T/C [2] was 101 % of control. For the same molecule, the T/C [3] was 97 % of control.
For O=C(O)CC(NC(=O)CP(=O)(O)O)C(=O)O (stereo not drawn), the T/C [3] was 99 % of control, the T/C (dose: 25.0 mg/kg/injection, schedule: Q01DX009 (ip), vehicle: saline) was 103 % of control and the T/C (dose: 100.0 mg/kg/injection, schedule: Q01DX009 (ip), vehicle: saline) was 158 % of control. For the same molecule, the T/C (dose: 200.0 mg/kg/injection, schedule: Q01DX009 (ip), vehicle: saline) was 187 % of control.
For CCN(CC)CCNc1ccc(C)c2sc3ccc(O)cc3c(=O)c12, the T/C [4] was 95 % of control, the T/C [5] was 105 % of control and the T/C [6] was 102 % of control.
For NC(=O)/C=C/c1c[nH]c2nccnc12, the T/C (dose: 1.56 mg/kg/injection, schedule: Q01DX009 (ip), vehicle: water) was 94 % of control, the T/C (dose: 3.12 mg/kg/injection, schedule: Q01DX009 (ip), vehicle: water) was 88 % of control and the T/C (dose: 6.25 mg/kg/injection, schedule: Q01DX009 (ip), vehicle: water) was 92 % of control. The T/C (dose: 12.5 mg/kg/injection, schedule: Q01DX009 (ip), vehicle: water) was 94 % of control and the T/C (dose: 25.0 mg/kg/injection, schedule: Q01DX009 (ip), vehicle: water) was 94 % of control.
In the case of [N-]=[N+]=[N-], the T/C (dose: 1.5 mg/kg/injection, schedule: Q01DX009 (ip), vehicle: saline) is reported as 96 % of control, the T/C (dose: 3.0 mg/kg/injection, schedule: Q01DX009 (ip), vehicle: saline) is reported as 98 % of control and the T/C (dose: 6.0 mg/kg/injection, schedule: Q01DX009 (ip), vehicle: saline) is reported as 106 % of control. The T/C (dose: 12.0 mg/kg/injection, schedule: Q01DX009 (ip), vehicle: saline) was 95 % of control.
In the case of CCCCCC1c2cc(O)ccc2OC1N1CCOCC1 (stereo not drawn), the T/C (dose: 6.0 mg/kg/injection, schedule: Q01DX009 (ip), vehicle: saline with Tween-80) is reported as 96 % of control, the T/C (dose: 12.0 mg/kg/injection, schedule: Q01DX009 (ip), vehicle: saline with Tween-80) is reported as 104 % of control and the T/C [4] is reported as 97 % of control. The T/C [5] was 91 % of control, the T/C [6] was 103 % of control and 104 % of control and the T/C (dose: 100.0 mg/kg/injection, schedule: Q01DX009 (ip), vehicle: saline with Tween-80) was 94 % of control and 96 % of control. For the same molecule, the T/C (dose: 200.0 mg/kg/injection, schedule: Q01DX009 (ip), vehicle: saline with Tween-80) was 90 % of control and 99 % of control.
With C[C@H](N)C(=O)N[C@@H]1[C@H]2C(=C(O)C[C@@H](O)[C@@H]2O)C(=O)O[C@]1(C)C(Cl)Cl the T/C (dose: 0.19 mg/kg/injection, schedule: Q01DX009 (ip), vehicle: Klucel (hydroxypropylcellulose) (HPC)) was 97 % of control, the T/C (dose: 0.38 mg/kg/injection, schedule: Q01DX009 (ip), vehicle: Klucel (hydroxypropylcellulose) (HPC)) was 101 % of control and the T/C (dose: 0.75 mg/kg/injection, schedule: Q01DX009 (ip), vehicle: Klucel (hydroxypropylcellulose) (HPC)) was 111 % of control. For the same molecule, the T/C (dose: 1.5 mg/kg/injection, schedule: Q01DX009 (ip), vehicle: Klucel (hydroxypropylcellulose) (HPC)) was 100 % of control.
With N=C(N)CCCCCCCCC(=N)N the T/C (dose: 0.79 mg/kg/injection, schedule: Q01DX009 (ip), vehicle: saline) was 112 % of control, the T/C [1] was 119 % of control and the T/C (dose: 3.12 mg/kg/injection, schedule: Q01DX009 (ip), vehicle: saline) was 112 % of control. For the same molecule, the T/C [2] was 124 % of control, the T/C (dose: 12.5 mg/kg/injection, schedule: Q01DX001 (ip), vehicle: saline) was 97 % of control and the T/C [3] was 115 % of control. For the same molecule, the T/C (dose: 25.0 mg/kg/injection, schedule: Q01DX001 (ip), vehicle: saline) was 103 % of control and the T/C (dose: 50.0 mg/kg/injection, schedule: Q01DX001 (ip), vehicle: saline) was 107 % of control.
For CCCCCCCCCCCCN1C(C)=CS/C1=C\C=C\c1scc(C)[n+]1CCCCCCCCCCCC, the T/C (dose: 1.56 mg/kg/injection, schedule: Q01DX009 (ip), vehicle: saline with Tween-80) was 90 % of control.
With CC1CCC(n2cnc3c(Cl)ncnc32)O1 (stereo not drawn) the T/C [7] was 91 % of control, the T/C [8] was 107 % of control and the T/C [9] was 107 % of control. For the same molecule, the T/C [10] was 108 % of control, the T/C [11] was 113 % of control and the T/C (dose: 400.0 mg/kg/injection, schedule: Q01DX009 (ip), vehicle: Klucel (hydroxypropylcellulose) (HPC)) was 108 % of control.
For Cc1cc(NS(=O)(=O)c2ccc(N=Nc3cc(N=Nc4ccc(S(=O)(=O)Nc5cc(C)nc(C)n5)cc4)c4c(NC(=O)C(Cl)Cl)cccc4c3OC(=O)C(Cl)Cl)cc2)nc(C)n1 (tested in a mixture with another compound), the T/C [12] was 105 % of control, the T/C [13] was 90 % of control and the T/C (dose: 100.0 mg/kg/injection, schedule: Q01DX009 (ip), vehicle: suspension in saline) was 88 % of control. For the same molecule, the T/C (dose: 200.0 mg/kg/injection, schedule: Q01DX009 (ip), vehicle: suspension in saline) was 88 % of control.
For O=C(O)C(CSC(c1ccccc1)(c1ccccc1)c1ccccc1)N=Cc1cccs1 (stereo not drawn), the T/C (dose: 12.5 mg/kg/injection, schedule: Q01DX009 (ip), vehicle: suspension in saline) was 104 % of control, the T/C [12] was 100 % of control and the T/C [13] was 105 % of control.
With Oc1c(Cl)cc(C(c2cc(Cl)c(O)c(Cl)c2)C(c2cc(Cl)c(O)c(Cl)c2)c2cc(Cl)c(O)c(Cl)c2)cc1Cl the T/C [7] was 98 % of control, the T/C [8] was 101 % of control and the T/C [9] was 104 % of control. The T/C [10] was 103 % of control and the T/C [11] was 106 % of control.
